Legend:
Assay in all cases: Test B pre-/postemergence plant response
Assay type in all cases: in vivo
[1] = test system: cocklebur (Xanthium strumarium)
In short: (§1)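 Response scores were assigned visually after 13 to 15 days in a greenhouse, comparing treated pots with controls on a 0–100 scale where 100 denotes complete control. Preemergence treatments went onto freshly seeded loam/sand soil; postemergence treatments onto plants 2 to 18 cm tall.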

[2] = test system: velvetleaf (Abutilon theophrasti)
In short: as §1

corn (Zea mays) = test system: corn (Zea mays)
In short: as §1

[3] = test system: large crabgrass (Digitaria sanguinalis)
In short: as §1

[4] = test system: bermudagrass (Cynodon dactylon)
In short: as §1

[5] = test system: Italian ryegrass (Lolium multiflorum)
In short: as §1

[6] = test system: blackgrass (Alopecurus myosuroides)
In short: as §1

[7] = test system: pigweed (Amaranthus retroflexus)
In short: as §1

[8] = test system: yellow nutsedge (Cyperus esculentus)
In short: as §1

[9] = test system: downy bromegrass (Bromus tectorum)
In short: as §1

[10] = test system: lambsquarters (Chenopodium album)
In short: as §1

kochia (Kochia scoparia) = conditions: Postemergence
In short: as §1

wild oat (Avena fatua) = test system: wild oat (Avena fatua)
In short: as §1

soybean (Glycine max) = test system: soybean (Glycine max)
In short: as §1

[11] = test system: ragweed (common ragweed, Ambrosia elatior)
In short: as §1

[12] = test system: Surinam grass (Brachiaria decumbens)
In short: as §1

[13] = test system: green foxtail (Setaria viridis)
In short: as §1

[14] = Postemergence, 31 g ai/ha, 0 to 100 scale (0 no effect, 100 complete control)
[15] = Postemergence, 125 g ai/ha, scale 0 to 100 (0 no effect, 100 complete control)
[16] = Postemergence, 250 g ai/ha, scale 0 to 100 (0 no effect, 100 complete control), 13 to 15 days
[17] = Postemergence, 62 g ai/ha, scale 0 to 100 (0 no effect, 100 complete control)
[18] = Preemergence, 125 g ai/ha, scale 0 to 100, 0 no effect, 100 complete control
[19] = Preemergence, 250 g ai/ha, 0 to 100 scale
[20] = Preemergence, 31 g ai/ha, scale 0 to 100 (0 no effect, 100 complete control)
[21] = Preemergence, 62 g ai/ha, scale 0 to 100, 0 no effect, 100 complete control

Compound: CCCc1ncc(C(=O)C2=C(O)CCCC2=O)c(=O)n1-c1ccccc1 [Compound 217]
- Plant response rating, Cocklebur [1, 14]: 80
- Plant response rating, Cocklebur [1, 15]: 98
- Plant response rating, Cocklebur [1, 16]: 100
- Plant response rating, Cocklebur [1, 17]: 98
- Plant response rating, Cocklebur [1, 18]: 85
- Cocklebur plant response rating [1, 19]: 85
- Plant response rating, Velvetleaf [2, 14]: 98
- Plant response rating, Velvetleaf [2, 16]: 100
- Plant response rating, Velvetleaf [2, 17]: 98
- Plant response rating, Velvetleaf [2, 20]: 95
- Plant response rating, Velvetleaf [2, 21]: 100
- Plant response rating, Velvetleaf [2, 18]: 100
- Velvetleaf plant response rating [2, 19]: 100
- Plant response rating, Corn (corn (Zea mays); [14]): 0
- Plant response rating, Corn (corn (Zea mays); [15]): 25
- Plant response rating, Corn (corn (Zea mays); [16]): 35
- Plant response rating, Corn (corn (Zea mays); [17]): 10
- Plant response rating, Corn (corn (Zea mays); [20]): 0
- Plant response rating, Corn (corn (Zea mays); [21]): 0
- Plant response rating, Corn (corn (Zea mays); [18]): 0
- Corn plant response rating (corn (Zea mays); [19]): 0
- Plant response rating, Crabgrass, Large [3, 14]: 80
- Plant response rating, Crabgrass, Large [3, 15]: 90
- Plant response rating, Crabgrass, Large [3, 16]: 98
- Plant response rating, Crabgrass, Large [3, 17]: 85
- Plant response rating, Crabgrass, Large [3, 20]: 95
- Plant response rating, Crabgrass, Large [3, 21]: 100
- Plant response rating, Crabgrass, Large [3, 18]: 100
- Crabgrass, Large plant response rating [3, 19]: 100
- Plant response rating, Bermudagrass [4, 14]: 70
- Plant response rating, Bermudagrass [4, 15]: 98
- Plant response rating, Bermudagrass [4, 16]: 100
- Plant response rating, Bermudagrass [4, 17]: 85
- Plant response rating, Bermudagrass [4, 20]: 98
- Plant response rating, Bermudagrass [4, 21]: 100
- Plant response rating, Bermudagrass [4, 18]: 100
- Bermudagrass plant response rating ([4]; Preemergence, 250 g ai/ha, 0 to 100 scale, 0 no effect, 100 complete control): 100
- Plant response rating, Ryegrass, Italian [5, 14]: 0
- Plant response rating, Ryegrass, Italian [5, 16]: 40
- Plant response rating, Ryegrass, Italian [5, 17]: 30
- Plant response rating, Ryegrass, Italian [5, 20]: 0
- Plant response rating, Ryegrass, Italian [5, 21]: 0
- Plant response rating, Ryegrass, Italian [5, 18]: 5
- Ryegrass, Italian plant response rating [5, 19]: 10
- Plant response rating, Blackgrass [6, 14]: 0
- Plant response rating, Blackgrass [6, 15]: 30
- Plant response rating, Blackgrass [6, 16]: 30
- Plant response rating, Blackgrass [6, 17]: 5
- Plant response rating, Blackgrass [6, 20]: 0
- Plant response rating, Blackgrass [6, 21]: 0
- Plant response rating, Blackgrass [6, 18]: 0
- Blackgrass plant response rating [6, 19]: 0
- Plant response rating, Pigweed [7, 14]: 85
- Plant response rating, Pigweed [7, 16]: 100
- Plant response rating, Pigweed [7, 17]: 100
- Plant response rating, Pigweed [7, 20]: 95
- Plant response rating, Pigweed [7, 21]: 100
- Plant response rating, Pigweed [7, 18]: 100
- Pigweed plant response rating [7, 19]: 100
- Plant response rating, Nutsedge, Yellow [8, 14]: 10
- Plant response rating, Nutsedge, Yellow [8, 15]: 70
- Plant response rating, Nutsedge, Yellow [8, 16]: 70
- Plant response rating, Nutsedge, Yellow [8, 17]: 60
- Plant response rating, Nutsedge, Yellow [8, 20]: 60
- Plant response rating, Nutsedge, Yellow [8, 21]: 65
- Plant response rating, Nutsedge, Yellow [8, 18]: 70
- Nutsedge, Yellow plant response rating [8, 19]: 90
- Plant response rating, Bromegrass, Downy [9, 14]: 10
- Plant response rating, Bromegrass, Downy [9, 15]: 40
- Plant response rating, Bromegrass, Downy [9, 16]: 65
- Plant response rating, Bromegrass, Downy [9, 17]: 15
- Plant response rating, Bromegrass, Downy [9, 20]: 0
- Plant response rating, Bromegrass, Downy [9, 21]: 0
- Plant response rating, Bromegrass, Downy [9, 18]: 0
- Bromegrass, Downy plant response rating [9, 19]: 0
- Plant response rating, Lambsquarters [10, 14]: 90
- Plant response rating, Lambsquarters [10, 15]: 100
- Plant response rating, Lambsquarters [10, 16]: 100
- Plant response rating, Lambsquarters [10, 17]: 100
- Plant response rating, Lambsquarters [10, 20]: 95
- Plant response rating, Lambsquarters [10, 21]: 100
- Plant response rating, Lambsquarters [10, 18]: 100
- Lambsquarters plant response rating [10, 19]: 100
- Plant response rating, Kochia (kochia (Kochia scoparia); 31 g ai/ha, 0 to 100 scale (0 no effect, 100 complete control)): 75
- Plant response rating, Kochia (kochia (Kochia scoparia); 125 g ai/ha, scale 0 to 100 (0 no effect, 100 complete control)): 100
- Plant response rating, Kochia (kochia (Kochia scoparia); 250 g ai/ha, scale 0 to 100 (0 no effect, 100 complete control), 13 to 15 days): 100
- Plant response rating, Kochia (kochia (Kochia scoparia); 62 g ai/ha, scale 0 to 100 (0 no effect, 100 complete control)): 98
- Plant response rating, Oat, Wild (wild oat (Avena fatua); [14]): 30
- Plant response rating, Oat, Wild (wild oat (Avena fatua); [16]): 85
- Plant response rating, Oat, Wild (wild oat (Avena fatua); [17]): 40
- Plant response rating, Oat, Wild (wild oat (Avena fatua); [20]): 0
- Plant response rating, Oat, Wild (wild oat (Avena fatua); [21]): 0
- Plant response rating, Oat, Wild (wild oat (Avena fatua); [18]): 0
- Oat, Wild plant response rating (wild oat (Avena fatua); [19]): 0
- Plant response rating, Soybean (soybean (Glycine max); [14]): 75
- Plant response rating, Soybean (soybean (Glycine max); [16]): 98
- Plant response rating, Soybean (soybean (Glycine max); [17]): 85
- Plant response rating, Soybean (soybean (Glycine max); [20]): 0
- Plant response rating, Soybean (soybean (Glycine max); [21]): 0
- Plant response rating, Soybean (soybean (Glycine max); [18]): 0
- Soybean plant response rating (soybean (Glycine max); [19]): 0
- Plant response rating, Ragweed [11, 14]: 80
- Plant response rating, Ragweed [11, 16]: 98
- Plant response rating, Ragweed [11, 17]: 80
- Plant response rating, Ragweed [11, 20]: 60
- Plant response rating, Ragweed [11, 21]: 60
- Plant response rating, Ragweed [11, 18]: 90
- Ragweed plant response rating [11, 19]: 95
- Plant response rating, Surinam Grass [12, 14]: 70
- Plant response rating, Surinam Grass [12, 16]: 95
- Plant response rating, Surinam Grass [12, 17]: 80
- Plant response rating, Surinam Grass [12, 20]: 45
- Plant response rating, Surinam Grass [12, 21]: 75
- Plant response rating, Surinam Grass [12, 18]: 85
- Surinam Grass plant response rating [12, 19]: 90
- Plant response rating, Foxtail, Green [13, 14]: 55
- Plant response rating, Foxtail, Green [13, 15]: 85
- Plant response rating, Foxtail, Green [13, 16]: 90
- Plant response rating, Foxtail, Green [13, 17]: 60
- Plant response rating, Foxtail, Green [13, 20]: 0
- Plant response rating, Foxtail, Green [13, 21]: 0
- Plant response rating, Foxtail, Green [13, 18]: 0
- Foxtail, Green plant response rating [13, 19]: 90

— US8952024B2, “Herbicidal pyrimidone derivatives” (E I du Pont de Nemours and Company, priority 2009, dated 2015)
